Test results from paper PMC8759733 (Journal of Enzyme Inhibition and Medicinal Chemistry, 2021).
Entries after “also recorded” stand apart in the source; their conditions may differ.

How the values were obtained:
[1] = molecular target: butyrylcholinesterase (BChE) (Equus caballus, UniProt P81908); assay: Cholinesterase inhibition activity assay; type: biochemical, Equine serum; settings: read-out: BChE Percentage of inhibition at 4 µg/mL
[2] = molecular target: Acetylcholinesterase (AChE) (Electrophorus electricus, UniProt O42275); assay: Cholinesterase inhibition activity assay; type: biochemical; settings: for inhibition at 1 µg/mL: read-out: Percentage of AChE inhibition at 1 µg/mL
AChE = AChE (Electrophorus electricus, UniProt O42275); assay: AChE enzyme kinetic study; type: biochemical; settings: substrate ATCI 0.43-6.90 mM; Lineweaver-Burk plot
Chain of AChE (O42275 24-633): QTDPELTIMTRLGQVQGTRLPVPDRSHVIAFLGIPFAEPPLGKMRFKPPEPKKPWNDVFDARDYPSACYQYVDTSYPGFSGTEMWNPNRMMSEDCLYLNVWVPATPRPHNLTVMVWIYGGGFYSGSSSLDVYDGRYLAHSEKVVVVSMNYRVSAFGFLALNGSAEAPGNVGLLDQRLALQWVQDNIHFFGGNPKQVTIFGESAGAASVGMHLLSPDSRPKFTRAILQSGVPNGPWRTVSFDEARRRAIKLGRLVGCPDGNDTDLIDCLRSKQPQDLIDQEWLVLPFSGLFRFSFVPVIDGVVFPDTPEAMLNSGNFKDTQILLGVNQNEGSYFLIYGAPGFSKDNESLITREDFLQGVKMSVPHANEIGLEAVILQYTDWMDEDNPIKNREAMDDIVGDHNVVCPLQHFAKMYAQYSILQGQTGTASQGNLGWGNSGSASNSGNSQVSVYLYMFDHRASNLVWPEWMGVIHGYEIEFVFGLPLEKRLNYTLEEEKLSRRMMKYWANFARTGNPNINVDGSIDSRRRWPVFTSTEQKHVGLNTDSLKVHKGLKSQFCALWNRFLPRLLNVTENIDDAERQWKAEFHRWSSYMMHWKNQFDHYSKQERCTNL

Chain of butyrylcholinesterase (BChE) (P81908 whole entry): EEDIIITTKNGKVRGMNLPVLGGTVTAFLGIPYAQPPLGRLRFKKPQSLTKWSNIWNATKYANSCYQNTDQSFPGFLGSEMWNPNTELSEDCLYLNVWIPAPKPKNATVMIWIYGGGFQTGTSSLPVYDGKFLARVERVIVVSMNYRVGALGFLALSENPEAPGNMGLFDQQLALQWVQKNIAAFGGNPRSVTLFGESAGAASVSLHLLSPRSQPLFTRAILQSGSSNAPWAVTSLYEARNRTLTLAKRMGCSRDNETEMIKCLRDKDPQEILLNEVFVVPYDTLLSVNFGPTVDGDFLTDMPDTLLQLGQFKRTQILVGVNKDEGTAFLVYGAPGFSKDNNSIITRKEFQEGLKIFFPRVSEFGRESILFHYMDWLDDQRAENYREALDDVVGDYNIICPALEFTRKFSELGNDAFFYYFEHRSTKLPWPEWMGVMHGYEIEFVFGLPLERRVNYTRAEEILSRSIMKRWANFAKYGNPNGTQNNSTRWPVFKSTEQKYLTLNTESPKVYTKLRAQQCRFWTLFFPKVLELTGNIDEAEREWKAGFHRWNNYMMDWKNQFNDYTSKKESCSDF
Chain of Acetylcholinesterase (AChE) (O42275 24-633): as the sequence (O42275 24-633) above

SMILES	inhibition at 4 µg/mL [1] [%]	IC50 [2] [nM]	inhibition at 1 µg/mL [2] [%]	Mode of AChE inhibition (AChE)
CC[C@H](C)COc1ccc2c(=O)c3ccccc3oc2c1 [Compound 7, (S)-3-(2-Methylbutoxy)-9H-xanthen-9-one]	24.8 ± 1.96	1740 ± 200		
O=c1c2ccccc2oc2cc(OCCCc3ccccc3)ccc12 [Compound 22, 3-(3-Phenylpropoxy)-9H-xanthen-9-one]	15.5 ± 1.93	1220 ± 120		
O=c1c2ccccc2oc2cc(OCc3ccccc3)ccc12 [Compound 21, 3-(Benzyloxy)-9H-xanthen-9-one]	5.04 ± 0.7	990 ± 190		
O=c1c2ccccc2oc2cc(OCC3CCC3)ccc12 [Compound 10, 3-(Cyclobutylmethoxy)-9H-xanthen-9-one]	7.01 ± 1.16	1610 ± 110		
COCOCCOc1ccc2c(=O)c3ccccc3oc2c1 [Compound 25, 3-(2-(Methoxymethoxy)ethoxy)-9H-xanthen-9-one]	10.3 ± 1.24	1370 ± 120		
O=c1c2ccccc2oc2cc(O)ccc12 [Compound 1, 3-hydroxyxanthone]	6.55 ± 0.82	2390 ± 110		
C=CCCCOc1ccc2c(=O)c3ccccc3oc2c1 [Compound 13, 3-(Pent-4-en-1-yloxy)-9H-xanthen-9-one]	20.9 ± 3.07	> 3570	< 50	
CCC(CC)COc1ccc2c(=O)c3ccccc3oc2c1 [Compound 8, 3-(2-Ethylbutoxy)-9H-xanthen-9-one]	12.6 ± 1.26	1150 ± 190		
C[C@H](CO)COc1ccc2c(=O)c3ccccc3oc2c1 [Compound 29, (R)-3-(3-Hydroxy-2-methylpropoxy)-9H-xanthen-9-one]	13.9 ± 0.96	> 3520	< 50	
CCC#CCOc1ccc2c(=O)c3ccccc3oc2c1 [Compound 19, 3-(Pent-2-yn-1-yloxy)-9H-xanthen-9-one]	5.24 ± 0.25	1210 ± 50		
CC(C)Oc1ccc2c(=O)c3ccccc3oc2c1 [Compound 4, 3-Isopropoxy-9H-xanthen-9-one]	20.7 ± 1.75	1410 ± 130		
CC(C)CCOc1ccc2c(=O)c3ccccc3oc2c1 [Compound 6, 3-(Isopentyloxy)-9H-xanthen-9-one]	5.47 ± 0.61	1840 ± 210		
CCCOc1ccc2c(=O)c3ccccc3oc2c1 [Compound 2, 3-Propoxy-9H-xanthen-9-one]	11.9 ± 1.74	1860 ± 40		
C[C@@H](CO)COc1ccc2c(=O)c3ccccc3oc2c1 [Compound 30, (S)-3-(3-hydroxy-2-methylpropoxy)-9H-xanthen-9-one]	5.48 ± 0.31	> 3520	< 50	
COCCOCCOc1ccc2c(=O)c3ccccc3oc2c1 [Compound 26, 3-(2-(2-Methoxyethoxy)ethoxy)-9H-xanthen-9-one]	17.8 ± 1.6	970 ± 60		
CCCCOc1ccc2c(=O)c3ccccc3oc2c1 [Compound 3, 3-Butoxy-9H-xanthen-9-one]	17.6 ± 1.89	1400 ± 140		
CC#CCOc1ccc2c(=O)c3ccccc3oc2c1 [Compound 18, 3-(But-2-yn-1-yloxy)-9H-xanthen-9-one]	4.53 ± 0.88	> 3790	< 50	
CC(C)=CCOc1ccc2c(=O)c3ccccc3oc2c1 [Compound 16, 3-((3-Methylbut-2-en-1-yl)oxy)-9H-xanthen-9-one]	7.96 ± 1.22	1860 ± 150		
CCOC(=O)COc1ccc2c(=O)c3ccccc3oc2c1 [Compound 28, Ethyl 2-((9-oxo-9H-xanthen-3-yl)oxy)acetate]	4.11 ± 0.35	880 ± 150		mixed inhibition mechanism; also recorded: mixed-mode inhibition
COCCCOc1ccc2c(=O)c3ccccc3oc2c1 [Compound 24, 3-(3-Methoxypropoxy)-9H-xanthen-9-one]	11 ± 1.38	> 3520	< 50	
CC(C)CCCOc1ccc2c(=O)c3ccccc3oc2c1 [Compound 9, 3-((4-Methylpentyl)oxy)-9H-xanthen-9-one]	11.8 ± 0.98	2070 ± 60		
O=c1c2ccccc2oc2cc(OCCCCc3ccccc3)ccc12 [Compound 23, 3-(4-Phenylbutoxy)-9H-xanthen-9-one]	9.19 ± 0.55	880 ± 40		mixed inhibition mechanism; also recorded: mixed-mode inhibition
CC(C)=CCCOc1ccc2c(=O)c3ccccc3oc2c1 [Compound 17, 3-((4-Methylpent-3-en-1-yl)oxy)-9H-xanthen-9-one]	20.9 ± 3.03	1060 ± 120		
O=c1c2ccccc2oc2cc(OCCC3CCCCC3)ccc12 [Compound 11, 3-(2-Cyclohexylethoxy)-9H-xanthen-9-one]	24.3 ± 2.29	1270 ± 130		
COC(=O)COc1ccc2c(=O)c3ccccc3oc2c1 [Compound 27, Methyl 2-((9-oxo-9H-xanthen-3-yl)oxy)acetate]	7.69 ± 0.34	1280 ± 130		
C=CCCCCOc1ccc2c(=O)c3ccccc3oc2c1 [Compound 14, 3-(Hex-5-en-1-yloxy)-9H-xanthen-9-one]	16.4 ± 1.34	> 3400	< 50	
C=CCCOc1ccc2c(=O)c3ccccc3oc2c1 [Compound 12, 3-(But-3-en-1-yloxy)-9H-xanthen-9-one]	5.33 ± 0.17	2090 ± 210		
CC(C)COc1ccc2c(=O)c3ccccc3oc2c1 [Compound 5, 3-Isobutoxy-9H-xanthen-9-one]	9.78 ± 1.22	1180 ± 110		
C#CC(C)Oc1ccc2c(=O)c3ccccc3oc2c1 (centres unmarked) [Compound 20, 3-(But-3-yn-2-yloxy)-9H-xanthen-9-one]	5 ± 0.74	2240 ± 170		
C=C(C)COc1ccc2c(=O)c3ccccc3oc2c1 [Compound 15, 3-((2-Methylallyl)oxy)-9H-xanthen-9-one]	2.33 ± 0.3	1600 ± 150		
